Data on 15 compounds can be found in paper PMC6522510 (Nature Communications, 2019).

Where a name gives a salt, the structure may show the parent alone. Read-outs that look alike come from different tables or passages of the source.

Test systems include CHRF288-11; CMK; CMS; M07e; ML-2; MOLM-13; MV4-11; U937.
Design in all cases: species or system AML cell lines (8); Primary HTS, single concentration about 10 uM, Cell Titer Glo viability; log10 luminescence, per cent inhibition relative to cycloheximide control
Holding throughout (conditions): 72 h, relative to cycloheximide control, log10 luminescence, inhibitor
On the technique in general: In ATP-based viability assays light output follows the ATP content of the culture.

On to `CCN1CCC(C(=O)Nc2n[nH]c3nnc(-c4cccc(F)c4F)cc23)CC1` [SJ000573202-1, JW48822-155B0], for which the CHRF288-11 %inh in the assay with CHRF288-11 was 19.17%. Moreover, the CMK %inh with CMK is listed as 106.6%. For the same compound, the CMS %inh in the assay with CMS was 98.67%. Also, the M07e %inh with M07e is listed as 22.9%. For the same compound, the ML-2 %inh in the assay on ML-2 came out at 2.893%. Besides, in the assay on MOLM-13, the MOLM-13 %inh is given as 18.95%. Further, the MV4-11 %inh in the assay with MV4-11 was 52.48%. Besides, in the assay with U937, the U937 %inh is on record as 29.66%.
As to `COc1ccccc1Nc1ncc(-c2ccccc2)o1` [SJ000573117-1, U14961/90/1], the CHRF288-11 %inh with CHRF288-11 stood at 5.085%. In addition, in the assay with CMK, the CMK %inh is recorded as -0.2443%. For the same compound, the CMS %inh in the assay with CMS was -1.143%. In the assay on M07e, the M07e %inh is recorded as 4.937%. In addition, the ML-2 %inh in the assay with ML-2 was 0.6262%. Further, the MOLM-13 %inh in the assay on MOLM-13 was found to be 90.67%. The MV4-11 %inh with MV4-11 is given as 83.21%. Besides, in the assay with U937, the U937 %inh is given as -2.759%.
For the compound `c1ccc(-c2nc3n(c2-c2ccc4c(c2)OCO4)CCC3)nc1` [SJ000573174-1, JB42196-142B1], the CHRF288-11 %inh in the assay with CHRF288-11 is listed as 104.5%. Moreover, in the assay on CMK, the CMK %inh turned out to be 48.28%. In the assay with CMS, the CMS %inh is given as 32.28%. Further, the M07e %inh with M07e stood at 7.377%. Further, in the assay with ML-2, the ML-2 %inh was determined as 5.523%. Also, the MOLM-13 %inh in the assay on MOLM-13 was 37.41%. The MV4-11 %inh in the assay with MV4-11 was 4.462%. The U937 %inh in the assay with U937 is 1.96%.
For the compound `Cc1ccc(Nc2nccc(N(C)c3ccc4c(C)n(C)nc4c3)n2)cc1S(N)(=O)=O` [SJ000556680-2, PAZOPANIB | 786034 | GSK-786034 | GW-786034 | GW-786034B | PAZOPANIB HCL (GW786034 HCL)], the CHRF288-11 %inh in the assay with CHRF288-11 is 59.62%. The CMK %inh with CMK was 114.3%. Besides, in the assay on CMS, the CMS %inh came out at 28.45%. The M07e %inh in the assay with M07e came out at 33.41%. Further, the ML-2 %inh in the assay on ML-2 worked out at 7.239%. In addition, the MOLM-13 %inh in the assay with MOLM-13 came to 85.38%. The MV4-11 %inh with MV4-11 is on record as 69.1%. The U937 %inh with U937 was determined as 10.79%.
Consider `COc1cc(Nc2ncc(-c3ccccc3)o2)cc(OC)c1` [SJ000573115-1, U21834/32/1], for which, in the assay on CHRF288-11, the CHRF288-11 %inh is recorded as -9.037%. The CMK %inh in the assay on CMK was found to be 3.561%. Besides, in the assay on CMS, the CMS %inh was -1.309%. For the same compound, the M07e %inh in the assay with M07e stood at 1.992%. Also, the ML-2 %inh with ML-2 was found to be 2.252%. Also, the MOLM-13 %inh in the assay with MOLM-13 was 74.91%. In the assay on MV4-11, the MV4-11 %inh is on record as 75.56%. For the same compound, in the assay with U937, the U937 %inh was 0.9564%.
For `O=C1NC(=O)C(c2cccc(Cl)c2)=C1Nc1ccc(O)c(Cl)c1` [SJ000573172-1, RS98844-062A3], the CHRF288-11 %inh with CHRF288-11 is reported as 12.93%. The CMK %inh in the assay with CMK came to 35.38%. Moreover, in the assay with CMS, the CMS %inh is recorded as 2.425%. The M07e %inh in the assay with M07e is 6.042%. Also, in the assay on ML-2, the ML-2 %inh came to 2.635%. Also, in the assay on MOLM-13, the MOLM-13 %inh was determined as 11.18%. The MV4-11 %inh with MV4-11 was 8.124%. Also, the U937 %inh with U937 was 3.736%.
Turning to `NC(=O)c1cccc(Nc2nccc(Nc3cccc(F)c3)n2)c1` [SJ000573164-1, R5869/121/5], the CHRF288-11 %inh with CHRF288-11 came to 8.575%. Also, in the assay on CMK, the CMK %inh is 19.08%. For the same compound, in the assay with CMS, the CMS %inh worked out at 5.376%. For the same compound, the M07e %inh in the assay on M07e is listed as 12.07%. In addition, the ML-2 %inh in the assay with ML-2 was found to be 3.111%. Moreover, the MOLM-13 %inh in the assay on MOLM-13 is 57.29%. In the assay with MV4-11, the MV4-11 %inh was determined as 21.87%. For the same compound, in the assay with U937, the U937 %inh is given as 1.036%.
For the compound `CCC1(CC)C(=O)NC(=O)N(C)C1=O` [SJ000562691-1, METHARBITAL], in the assay on CHRF288-11, the CHRF288-11 %inh turned out to be 3.211%. Further, the CMK %inh with CMK is -5.926%. Besides, in the assay on CMS, the CMS %inh is reported as -4.139%. Moreover, the M07e %inh in the assay with M07e was -1.141%. Moreover, the ML-2 %inh in the assay on ML-2 is -0.4535%. Besides, the MOLM-13 %inh with MOLM-13 is given as -1.73%. Also, the MV4-11 %inh with MV4-11 is reported as 0.7749%. Further, the U937 %inh in the assay on U937 is given as -1.698%.
For the compound `COc1ccc2cc(-c3c(-c4ccncc4)nc(-c4ccc(S(C)(=O)=O)cc4C)n3C)ccc2c1` [SJ000573196-1, NJ44157-082B1], in the assay with CHRF288-11, the CHRF288-11 %inh came to 3.66%. Moreover, the CMK %inh in the assay with CMK is listed as 17.63%. The CMS %inh in the assay with CMS is 1.339%. The M07e %inh with M07e is recorded as -0.09869%. The ML-2 %inh in the assay on ML-2 came out at 0.1738%. In the assay with MOLM-13, the MOLM-13 %inh was 0.5598%. Besides, the MV4-11 %inh in the assay with MV4-11 worked out at 2.69%. Further, the U937 %inh in the assay with U937 is -1.98%.
For the compound `C[C@@H](Oc1cc(-n2cnc3ccc(OCC4CCN(C)CC4)cc32)sc1C(N)=O)c1ccccc1C(F)(F)F` [SJ000573257-1, U20395/196/2], the CHRF288-11 %inh in the assay with CHRF288-11 worked out at 130.5%. Moreover, the CMK %inh in the assay on CMK worked out at 97.6%. In addition, the CMS %inh in the assay on CMS is listed as 75.53%. Also, in the assay on M07e, the M07e %inh was determined as 98.02%. Further, the ML-2 %inh with ML-2 is 59.84%. For the same compound, the MOLM-13 %inh in the assay on MOLM-13 is 108.4%. In the assay on MV4-11, the MV4-11 %inh was 86.97%. In addition, in the assay with U937, the U937 %inh is recorded as 73.66%.
As to `Cn1cc(C2=C(c3cn(C)c4c([N+](=O)[O-])cccc34)C(=O)NC2=O)c2ccccc21` [SJ000581096-1], the CHRF288-11 %inh in the assay with CHRF288-11 is -0.1815%. Besides, the CMK %inh in the assay with CMK is reported as 1.442%. For the same compound, in the assay with CMS, the CMS %inh is given as -0.5679%. The M07e %inh in the assay on M07e is on record as 3.87%. Moreover, in the assay on ML-2, the ML-2 %inh is reported as -1.675%. For the same compound, the MOLM-13 %inh with MOLM-13 is -1.995%. In the assay with MV4-11, the MV4-11 %inh is 1.039%. In addition, the U937 %inh in the assay on U937 is on record as -1.424%.
In the case of `Cn1cnc([N+](=O)[O-])c1Sc1ncnc2[nH]cnc12` [SJ000285241-8, AZATHIOPRINE], the CHRF288-11 %inh in the assay with CHRF288-11 is given as 14.99%. In the assay with CMK, the CMK %inh turned out to be 49.74%. In addition, in the assay on CMS, the CMS %inh came out at 0.5483%. In the assay on M07e, the M07e %inh stood at 7.374%. Besides, the ML-2 %inh in the assay on ML-2 was determined as 14.66%. For the same compound, the MOLM-13 %inh in the assay on MOLM-13 was found to be 36.41%. Besides, the MV4-11 %inh in the assay on MV4-11 was determined as 14.19%. In the assay on U937, the U937 %inh was -0.6587%.
In the case of `Cn1cc(C2=C(Nc3ccccc3)C(=O)NC2=O)c2ccccc21` [SJ000580986-1], the CHRF288-11 %inh with CHRF288-11 was -2.441%. The CMK %inh in the assay on CMK was -3.795%. The CMS %inh in the assay with CMS is recorded as 2.457%. Besides, the M07e %inh in the assay with M07e is reported as -1.248%. Also, in the assay with ML-2, the ML-2 %inh turned out to be 0.1627%. Moreover, the MOLM-13 %inh in the assay with MOLM-13 is 1.455%. In addition, the MV4-11 %inh in the assay with MV4-11 is reported as -0.9881%. Further, in the assay on U937, the U937 %inh is listed as -0.4269%.
Regarding `CN1C(C(=O)Nc2ccccn2)=C(O)c2ccccc2S1(=O)=O` [SJ000285539-7, PIROXICAM], the CHRF288-11 %inh in the assay with CHRF288-11 (CHRF288-11 %inh, 10 µM) is listed as -2.388%. Moreover, the CMK %inh with CMK (CMK %inh, 10 µM) is given as -2.958%. Also, the CMS %inh with CMS (CMS %inh, 10 µM) is reported as -2.071%. In addition, in the assay with M07e (M07e %inh, 10 µM), the M07e %inh is on record as -0.7405%. Further, the ML-2 %inh with ML-2 (ML-2 %inh, 10 µM) was determined as 0.4088%. For the same compound, in the assay with MOLM-13 (MOLM-13 %inh, 10 µM), the MOLM-13 %inh is -0.4149%. For the same compound, in the assay with MV4-11 (MV4-11 %inh, 10 µM), the MV4-11 %inh was -0.5288%. Further, the U937 %inh with U937 (U937 %inh, 10 µM) worked out at 1.434%.
For the compound `Oc1ccc(-c2c(-c3ccccc3)nn3c(C(F)(F)F)cc(C(F)(F)F)nc23)cc1` [SJ000546500-1, PHTPP], the CHRF288-11 %inh in the assay on CHRF288-11 is reported as -1.975%. For the same compound, in the assay with CMK, the CMK %inh is -2.936%. For the same compound, in the assay on CMS, the CMS %inh was -0.8785%. The M07e %inh in the assay with M07e is on record as -1.02%. For the same compound, the ML-2 %inh in the assay on ML-2 was -0.1539%. Moreover, in the assay on MOLM-13, the MOLM-13 %inh is -1.733%. For the same compound, in the assay on MV4-11, the MV4-11 %inh is on record as 0.8155%. Besides, in the assay with U937, the U937 %inh is -1.023%.
